Reference: PubChem BioAssay AID1918949 (Molecular Pharmacology Branch, DTP, NCI, 2023)
Where “and” joins values, the source holds several entries; their conditions need not be identical. Equal values may be shown once.

Test system: K24384-001-R-PDC complex spheroid viability
Test: Anticancer human tumor K24384-001-R-PDC patient-derived pancreatic adenocarcinoma cell line growth inhibition
Details: for viability, T/C: stronger effect = lower value
Method in brief: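 Complex spheroids of tumor cells with HUVEC and human MSCs, exposed to iadademstat combined with other agents. Each agent tested in half-log steps from near clinical Cmax (else 10 microM top), DMSO ≤0.25%.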

[1] = curve of first compound, second compound 0.1 µM
[2] = curve of first compound, second compound 0.316 µM
[3] = curve of first compound, second compound 1 µM
[4] = curve of first compound, second compound 3.16 µM
[5] = curve of first compound, second compound 10 µM
[6] = second compound 0.1 µM, first compound 0.00949 µM
[7] = second compound 0.1 µM, first compound 0.03 µM
[8] = second compound 0.1 µM, first compound 0.0949 µM
[9] = second compound 0.1 µM, first compound 0.3 µM
[10] = second compound 0.1 µM, first compound 0.949 µM
[11] = second compound 0.1 µM, first compound 3 µM
[12] = second compound 0.316 µM, first compound 0.00949 µM
[13] = second compound 0.316 µM, first compound 0.03 µM
[14] = second compound 0.316 µM, first compound 0.0949 µM
[15] = second compound 0.316 µM, first compound 0.3 µM
[16] = second compound 0.316 µM, first compound 0.949 µM
[17] = second compound 0.316 µM, first compound 3 µM
[18] = second compound 1 µM, first compound 0.00949 µM
[19] = second compound 1 µM, first compound 0.03 µM
[20] = second compound 1 µM, first compound 0.0949 µM
[21] = second compound 1 µM, first compound 0.3 µM
[22] = second compound 1 µM, first compound 0.949 µM
[23] = second compound 1 µM, first compound 3 µM
[24] = second compound 3.16 µM, first compound 0.00949 µM
[25] = second compound 3.16 µM, first compound 0.03 µM
[26] = second compound 3.16 µM, first compound 0.0949 µM
[27] = second compound 3.16 µM, first compound 0.3 µM
[28] = second compound 3.16 µM, first compound 0.949 µM
[29] = second compound 3.16 µM, first compound 3 µM
[30] = second compound 10 µM, first compound 0.00949 µM
[31] = second compound 10 µM, first compound 0.03 µM
[32] = second compound 10 µM, first compound 0.0949 µM
[33] = second compound 10 µM, first compound 0.3 µM
[34] = second compound 10 µM, first compound 0.949 µM
[35] = second compound 10 µM, first compound 3 µM
[36] = second compound 0.1 µM, first compound 0.00316 µM
[37] = second compound 0.1 µM, first compound 0.01 µM
[38] = second compound 0.1 µM, first compound 0.0316 µM
[39] = second compound 0.1 µM, first compound 0.1 µM
[40] = second compound 0.316 µM, first compound 0.00316 µM
[41] = second compound 0.316 µM, first compound 0.01 µM
[42] = second compound 0.316 µM, first compound 0.0316 µM
[43] = second compound 0.316 µM, first compound 0.1 µM
[44] = second compound 1 µM, first compound 0.00316 µM
[45] = second compound 1 µM, first compound 0.01 µM
[46] = second compound 1 µM, first compound 0.0316 µM
[47] = second compound 1 µM, first compound 0.1 µM
[48] = second compound 3.16 µM, first compound 0.00316 µM
[49] = second compound 3.16 µM, first compound 0.01 µM
[50] = second compound 3.16 µM, first compound 0.0316 µM
[51] = second compound 3.16 µM, first compound 0.1 µM
[52] = second compound 10 µM, first compound 0.00316 µM
[53] = second compound 10 µM, first compound 0.01 µM
[54] = second compound 10 µM, first compound 0.0316 µM
[55] = second compound 10 µM, first compound 0.1 µM
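Also: spheroids exposed to agents for seven days before luminescence viability reading.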
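For viability, T/C in this document: 100% = DMSO vehicle control viability.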

## CC(C)c1c(-c2ccccc2)nc2c(C#N)c[nH]n2c1=O
Compound 0.0316 µM
  viability, T/C: 89.9% and 82.5%
Compound 0.1 µM
  viability, T/C: 88.6% and 104%
Compound 0.316 µM
  viability, T/C: 96.9% and 93.2%
Compound 1 µM
  viability, T/C: 94.9% and 81.5%
Compound 3.16 µM
  viability, T/C: 97.4% and 69.9%
Compound 10 µM
  viability, T/C: 104% and 91.6%
Curve of compound
  IC50: > 10000 nM

## O=C(C=Cc1cccc(S(=O)(=O)Nc2ccccc2)c1)NO + NC1CC1c1ccc(-c2cccc(O)c2)cc1
[1]
  IC50: 240 nM
[2]
  IC50: 233 nM
[3]
  IC50: 229 nM
[4]
  IC50: 235 nM
[5]
  IC50: 185 nM
[6]
  viability, T/C: 105%
[7]
  viability, T/C: 111%
[8]
  viability, T/C: 95.5%
[9]
  viability, T/C: 39.3%
[10]
  viability, T/C: 3.97%
[11]
  viability, T/C: 2.49%
[12]
  viability, T/C: 90%
[13]
  viability, T/C: 108%
[14]
  viability, T/C: 117%
[15]
  viability, T/C: 34.4%
[16]
  viability, T/C: 4.35%
[17]
  viability, T/C: 1.43%
[18]
  viability, T/C: 80.9%
[19]
  viability, T/C: 113%
[20]
  viability, T/C: 98.1%
[21]
  viability, T/C: 35.6%
[22]
  viability, T/C: 5.51%
[23]
  viability, T/C: 0.1%
[24]
  viability, T/C: 85%
[25]
  viability, T/C: 124%
[26]
  viability, T/C: 103%
[27]
  viability, T/C: 35.5%
[28]
  viability, T/C: 4.17%
[29]
  viability, T/C: 0.1%
[30]
  viability, T/C: 81.1%
[31]
  viability, T/C: 114%
[32]
  viability, T/C: 70.7%
[33]
  viability, T/C: 32.7%
[34]
  viability, T/C: 5.8%
[35]
  viability, T/C: 0.18%

## CCN(c1cc(-c2ccc(CN3CCOCC3)cc2)cc(C(=O)NCc2c(C)cc(C)[nH]c2=O)c1C)C1CCOCC1
Compound 0.00949 µM
  viability, T/C: 114% and 95.8%
Compound 0.03 µM
  viability, T/C: 107% and 113%
Compound 0.0949 µM
  viability, T/C: 117% and 106%
Compound 0.3 µM
  viability, T/C: 96.4% and 99.3%
Compound 0.949 µM
  viability, T/C: 81.8% and 84.4%
Compound 3 µM
  viability, T/C: 63.5% and 72.9%
Curve of compound
  IC50: > 3000 nM

## O=C(C=Cc1cccc(S(=O)(=O)Nc2ccccc2)c1)NO + NC1CCC(NC2CC2c2ccccc2)CC1
[1]
  IC50: 262 nM
[2]
  IC50: 239 nM
[3]
  IC50: 241 nM
[4]
  IC50: 266 nM
[5]
  IC50: 192 nM
[6]
  viability, T/C: 109%
[7]
  viability, T/C: 112%
[8]
  viability, T/C: 116%
[9]
  viability, T/C: 41.7%
[10]
  viability, T/C: 3.48%
[11]
  viability, T/C: 0.14%
[12]
  viability, T/C: 131%
[13]
  viability, T/C: 107%
[14]
  viability, T/C: 95.1%
[15]
  viability, T/C: 39.4%
[16]
  viability, T/C: 4.3%
[17]
  viability, T/C: 0.15%
[18]
  viability, T/C: 90.3%
[19]
  viability, T/C: 121%
[20]
  viability, T/C: 95.8%
[21]
  viability, T/C: 39.1%
[22]
  viability, T/C: 4.13%
[23]
  viability, T/C: 0.15%
[24]
  viability, T/C: 109%
[25]
  viability, T/C: 129%
[26]
  viability, T/C: 113%
[27]
  viability, T/C: 42.5%
[28]
  viability, T/C: 4.22%
[29]
  viability, T/C: 0.16%
[30]
  viability, T/C: 107%
[31]
  viability, T/C: 118%
[32]
  viability, T/C: 73%
[33]
  viability, T/C: 35.7%
[34]
  viability, T/C: 3.52%
[35]
  viability, T/C: 0.24%

## Nc1ncn(C2CC(O)C(CO)S2)c(=O)n1 (stereo not given)
Compound 0.000949 µM
  viability, T/C: 93.1% and 95.2%
Compound 0.003 µM
  viability, T/C: 96.3% and 88.6%
Compound 0.00949 µM
  viability, T/C: 96.3% and 85.4%
Compound 0.03 µM
  viability, T/C: 83.3% and 89.3%
Compound 0.0949 µM
  viability, T/C: 81.3% and 69.1%
Compound 0.3 µM
  viability, T/C: 55.9% and 56.2%
Curve of compound
  IC50: > 300 nM

## COc1cc(Nc2ncc3c(n2)-c2ccc(Cl)cc2C(c2c(F)cccc2OC)=NC3)ccc1C(=O)O + NC1CC1c1ccc(-c2cccc(O)c2)cc1
[1]
  IC50: > 1000 nM
[2]
  IC50: > 1000 nM
[3]
  IC50: 48.3 nM
[4]
  IC50: 34.1 nM
[5]
  IC50: 25.1 nM
[36]
  viability, T/C: 74.2%
[37]
  viability, T/C: 72.7%
[38]
  viability, T/C: 62.4%
[39]
  viability, T/C: 57.3%
Second compound 0.1 µM, first compound 0.316 µM
  viability, T/C: 55.8%
Second compound 0.1 µM, first compound 1 µM
  viability, T/C: 60.3%
[40]
  viability, T/C: 68%
[41]
  viability, T/C: 63.1%
[42]
  viability, T/C: 51.9%
[43]
  viability, T/C: 47.8%
Second compound 0.316 µM, first compound 0.316 µM
  viability, T/C: 45.5%
Second compound 0.316 µM, first compound 1 µM
  viability, T/C: 58.9%
[44]
  viability, T/C: 61.1%
[45]
  viability, T/C: 62.5%
[46]
  viability, T/C: 52.8%
[47]
  viability, T/C: 43.7%
Second compound 1 µM, first compound 0.316 µM
  viability, T/C: 43.2%
Second compound 1 µM, first compound 1 µM
  viability, T/C: 48.9%
[48]
  viability, T/C: 56.6%
[49]
  viability, T/C: 64%
[50]
  viability, T/C: 50.4%
[51]
  viability, T/C: 39.6%
Second compound 3.16 µM, first compound 0.316 µM
  viability, T/C: 42.5%
Second compound 3.16 µM, first compound 1 µM
  viability, T/C: 49.8%
[52]
  viability, T/C: 65.4%
[53]
  viability, T/C: 62.4%
[54]
  viability, T/C: 45.7%
[55]
  viability, T/C: 44.6%
Second compound 10 µM, first compound 0.316 µM
  viability, T/C: 42.4%
Second compound 10 µM, first compound 1 µM
  viability, T/C: 54.7%

## CC(C)CC(NC(=O)CNC(=O)c1cc(Cl)ccc1Cl)B1OC(=O)CC(CC(=O)O)(C(=O)O)O1 (stereo not given) + NC1CCC(NC2CC2c2ccccc2)CC1
[1]
  IC50: 7.55 nM
[2]
  IC50: 5.78 nM
[3]
  IC50: 6.08 nM
[4]
  IC50: 5.59 nM
[5]
  IC50: 5 nM
Second compound 0.1 µM, first compound 0.000316 µM
  viability, T/C: 100%
Second compound 0.1 µM, first compound 0.001 µM
  viability, T/C: 90.2%
[36]
  viability, T/C: 82.7%
[37]
  viability, T/C: 40.4%
[38]
  viability, T/C: 3.3%
[39]
  viability, T/C: 0.72%
Second compound 0.316 µM, first compound 0.000316 µM
  viability, T/C: 97.4%
Second compound 0.316 µM, first compound 0.001 µM
  viability, T/C: 91.9%
[40]
  viability, T/C: 75.4%
[41]
  viability, T/C: 27.2%
[42]
  viability, T/C: 3.1%
[43]
  viability, T/C: 0.77%
Second compound 1 µM, first compound 0.000316 µM
  viability, T/C: 89.9%
Second compound 1 µM, first compound 0.001 µM
  viability, T/C: 87.7%
[44]
  viability, T/C: 75.1%
[45]
  viability, T/C: 30.9%
[46]
  viability, T/C: 4.13%
[47]
  viability, T/C: 0.7%
Second compound 3.16 µM, first compound 0.000316 µM
  viability, T/C: 92.1%
Second compound 3.16 µM, first compound 0.001 µM
  viability, T/C: 78.3%
[48]
  viability, T/C: 74.1%
[49]
  viability, T/C: 26.5%
[50]
  viability, T/C: 2.82%
[51]
  viability, T/C: 0.68%
Second compound 10 µM, first compound 0.000316 µM
  viability, T/C: 92.9%
Second compound 10 µM, first compound 0.001 µM
  viability, T/C: 75.7%
[52]
  viability, T/C: 69.8%
[53]
  viability, T/C: 22.8%
[54]
  viability, T/C: 2.54%
[55]
  viability, T/C: 0.55%

## CC1(C)CCC(CN2CCN(c3ccc(C(=O)NS(=O)(=O)c4ccc(NCC5CCOCC5)c([N+](=O)[O-])c4)c(Oc4cnc5[nH]ccc5c4)c3)CC2)=C(c2ccc(Cl)cc2)C1
Compound 0.0316 µM
  viability, T/C: 95.9% and 81.9%
Compound 0.1 µM
  viability, T/C: 97.3% and 90.8%
Compound 0.316 µM
  viability, T/C: 96.5% and 92.7%
Compound 1 µM
  viability, T/C: 106% and 78.1%
Compound 3.16 µM
  viability, T/C: 63.5% and 67.6%
Compound 10 µM
  viability, T/C: 0.81% and 1.22%
Curve of compound
  IC50: 4050 nM and 4230 nM

## COc1cc(C2c3cc4c(cc3C(OC3OC5COC(C)OC5C(O)C3O)C3COC(=O)C23)OCO4)cc(OC)c1O (stereo not given)
Compound 0.00949 µM
  viability, T/C: 96.2% and 95.2%
Compound 0.03 µM
  viability, T/C: 91.9% and 98.1%
Compound 0.0949 µM
  viability, T/C: 82% and 74.3%
Compound 0.3 µM
  viability, T/C: 62.3% and 52.5%
Compound 0.949 µM
  viability, T/C: 59.8% and 49.5%
Compound 3 µM
  viability, T/C: 42.1% and 33%
Curve of compound
  IC50: 1590 nM and 461 nM
